Assay: MIC of the examples against various organisms
Format: cell-based
Settings: against at least two of the above organisms (12-strain panel)
Procedure: The MIC (μg/ml) of the examples against various organisms was determined: A. baumannii ATCC19606, E. cloacae ATCC23355, E. coli ATCC25922, K. pneumoniae ATCC27736, P. mirabilis ATCC29906, P. aeruginosa ATCC27853, S. maltophilia ATCC13637, S. aureus ATCC43300, S. epidermidis ATCC14990, S. haemolyticus ATCC29970, E. faecalis ATCC29212 and E. faecium ATC19434.

Row | SMILES | MIC
1 | COc1ccc2ncc(Cl)c(C(O)CN3C4CCC3CC(NCc3cc5c(cn3)OCCO5)C4)c2n1 (centres unmarked) [Example 30, 1-(3-Chloro-6-methoxy-[1,5]-naphthyridin-4-yl)-2-{3-[(2,3-dihydro-[1,4]dioxino[2,3-c]pyridin-7-ylmethyl)-amino]-8-aza-bicyclo[3.2.1]oct-8-yl}-ethanol] | ≤ 2 µg/mL
2 | COc1ccc2nccc(C(O)CN3CCOC(CNCc4ccc5c(c4)OCCO5)C3)c2n1 (centres unmarked) [Example 31, 2-(2-{[(2,3-Dihydro-benzo[1,4]dioxin-6-ylmethyl)-amino]-methyl}-morpholin-4-yl)-1-(6-methoxy-[1,5]naphthyridin-4-yl)-ethanol] | ≤ 2 µg/mL
3 | COc1ccc2nccc(C(O)CN3CCOC(CNCc4ccc5c(c4)NC(=O)CS5)C3)c2n1 (centres unmarked) [Example 32, 6-[({4-[2-Hydroxy-2-(6-methoxy-[1,5]naphthyridin-4-yl)-ethyl]-morpholin-2-ylmethyl}amino)-methyl]-4H-benzo[1,4]thiazin-3-one] | ≤ 2 µg/mL
4 | COc1ccc2nccc(C(O)CN3CCOC(CNCc4ccc5c(n4)NC(=O)CS5)C3)c2n1 (centres unmarked) [Example 33, 6-[({4-[2-Hydroxy-2-(6-methoxy-[1,5]naphthyridin-4-yl)-ethyl]-morpholin-2-ylmethyl}amino)-methyl]-4H-pyrido[3,2-b][1,4]thiazin-3-one] | ≤ 2 µg/mL
5 | COc1ccc2nccc(C(O)CN3CCOC(CNCc4ccc5c(c4)NC(=O)CO5)C3)c2n1 (centres unmarked) [Example 34, 6-[({4-[2-Hydroxy-2-(6-methoxy-[1,5]naphthyridin-4-yl)-ethyl]-morpholin-2-ylmethyl}amino)-methyl]-4H-benzo[1,4]oxazin-3-one] | ≤ 2 µg/mL
6 | COc1cnc2cccc(C(O)CN3C4CCC3CC(NC/C=C/c3ccccc3)C4)c2c1 (centres unmarked) [Example 38, 1-(3-Methoxy-quinolin-5-yl)-2-[3-((E)-3-phenylallylamino)-8-aza-bicyclo[3.2.1]oct-8-yl]-ethanol] | ≤ 2 µg/mL
7 | COc1cnc2cccc(C(O)CN3C4CCC3CC(NCc3ccc5c(c3)OCCO5)C4)c2c1 (centres unmarked) [Example 39, 2-{3-[(2,3-Dihydro-benzo[1,4]dioxin-6-ylmethyl)-amino]-8-aza-bicyclo[3.2.1]oct-8-yl}-1-(3-methoxy-quinolin-5-yl)-ethanol] | ≤ 2 µg/mL
8 | COc1cnc2cccc(C(O)CN3C4CCC3CC(NCc3ccc5nsnc5c3)C4)c2c1 (centres unmarked) [Example 40, 2-{3-[(Benzo[1,2,5]thiadiazol-5-ylmethyl)-amino]-8-aza-bicyclo[3.2.1]oct-8-yl}-1-(3-methoxy-quinolin-5-yl)-ethanol] | ≤ 2 µg/mL
9 | COc1ccc2nccc(NC(=O)C3CCCC(CNC/C=C/c4ccccc4)C3)c2c1 (centres unmarked) [Example 53, 3-[((E)-3-Phenyl-allylamino)-methyl]-cyclohexanecarboxylic acid (6-methoxy-quinolin-4-yl)-amide] | ≤ 2 µg/mL
10 | COc1cnc2cccc(C(O)CN3C4CCC3CC(NCc3ccc5c(c3)OCCO5)C4)c2n1 (centres unmarked) [Example 78, 2-{3-[(2,3-Dihydro-benzo[1,4]dioxin-6-ylmethyl)-amino]-8-aza-bicyclo[3.2.1]oct-8-yl}-1-(3-methoxy-quinoxalin-5-yl)-ethanol] | ≤ 2 µg/mL
11 | COc1cnc2cccc(C(O)CN3C4CCC3CC(NCc3ccc5c(n3)NC(=O)CS5)C4)c2n1 (centres unmarked) [Example 79, 6-({8-[2-Hydroxy-2-(3-methoxy-quinoxalin-5-yl)-ethyl]-8-aza-bicyclo[3.2.1]oct-3-ylamino}-methyl)-4H-pyrido[3,2-b][1,4]thiazin-3-one] | ≤ 2 µg/mL
12 | COc1cnc2cccc(C(O)CN3C4CCC3CC(NCc3ccc5c(c3)NC(=O)CO5)C4)c2n1 (centres unmarked) [Example 80, 6-({8-[2-Hydroxy-2-(3-methoxy-quinoxalin-5-yl)-ethyl]-8-aza-bicyclo[3.2.1]oct-3-ylamino}-methyl)-4H-benzo[1,4]oxazin-3-one] | ≤ 2 µg/mL
13 | COc1cnc2cccc(C(O)CN3C4CCC3CC(NCc3ccc5c(c3)OCO5)C4)c2n1 (centres unmarked) [Example 81, 2-{3-[(Benzo[1,3]dioxol-5-ylmethyl)-amino]-8-aza-bicyclo[3.2.1]oct-8-yl}-1-(3-methoxy-quinoxalin-5-yl)-ethanol] | ≤ 2 µg/mL
14 | COc1cnc2cccc(C(O)CN3C4CCC3CC(NCc3ccc5nsnc5c3)C4)c2n1 (centres unmarked) [Example 82, 2-{3-[(Benzo[1,2,5]thiadiazol-5-ylmethyl)-amino]-8-aza-bicyclo[3.2.1]oct-8-yl}-1-(3-methoxy-quinoxalin-5-yl)-ethanol] | ≤ 2 µg/mL
15 | COc1cnc2cccc(C(O)CN3C4CCC3CC(NCc3cc5c(cc3F)SCC(=O)N5)C4)c2n1 (centres unmarked) [Example 84, 7-Fluoro-6-({8-[2-hydroxy-2-(3-methoxy-quinoxalin-5-yl)-ethyl]-8-aza-bicyclo[3.2.1]oct-3-ylamino}-methyl)-4H-benzo[1,4]thiazin-3-one] | ≤ 2 µg/mL
16 | COc1cnc2cccc(C(O)CN3C4CCC3CC(NCc3ccc5c(c3)NC(=O)CS5)C4)c2n1 (centres unmarked) [Example 85, 6-({8-[2-Hydroxy-2-(3-methoxy-quinoxalin-5-yl)-ethyl]-8-aza-bicyclo[3.2.1]oct-3-ylamino}-methyl)-4H-benzo[1,4]thiazin-3-one] | ≤ 2 µg/mL
17 | COc1cnc2cccc(C(O)CN3C4CCC3CC(NC/C=C/c3ccccc3)C4)c2n1 (centres unmarked) [Example 86, 1-(3-Methoxy-quinoxalin-5-yl)-2-[3-((E)-3-phenylallylamino)-8-aza-bicyclo[3.2.1]oct-8-yl]-ethanol] | ≤ 2 µg/mL
18 | COc1cnc2cccc(C(O)CN3CCCC(CNCc4ccc5c(c4)NC(=O)CO5)C3)c2n1 (centres unmarked) [Example 87, 6-[({1-[2-Hydroxy-2-(3-methoxy-quinoxalin-5-yl)-ethyl]-piperidin-3-ylmethyl}-amino)-methyl]-4H-benzo[1,4]oxazin-3-one] | ≤ 2 µg/mL
19 | COc1cnc2cccc(C(O)CN3CCCC(CNCc4cc5c(cn4)OCCO5)C3)c2n1 (centres unmarked) [Example 88, 2-(3-{[(2,3-Dihydro-[1,4]dioxino[2,3-c]pyridin-7-ylmethyl)-amino]-methyl}-piperidin-1-yl)-1-(3-methoxyquinoxalin-5-yl)-ethanol] | ≤ 2 µg/mL
20 | COc1cnc2cccc(C(O)CN3CCCC(CNCc4cc5c(cc4F)SCC(=O)N5)C3)c2n1 (centres unmarked) [Example 89, 7-Fluoro-6-[({1-[2-hydroxy-2-(3-methoxy-quinoxalin-5-yl)-ethyl]-piperidin-3-ylmethyl}-amino)-methyl]-4H-benzo[1,4]thiazin-3-one] | ≤ 2 µg/mL
21 | COc1cnc2cccc(C(O)CN3CCCC(CNCc4ccc5c(n4)NC(=O)CS5)C3)c2n1 (centres unmarked) [Example 90, 6-[({1-[2-Hydroxy-2-(3-methoxy-quinoxalin-5-yl)-ethyl]-piperidin-3-ylmethyl}-amino)-methyl]-4H-pyrido[3,2-b][1,4]thiazin-3-one] | ≤ 2 µg/mL
22 | COc1cnc2cccc(C(O)CN3CCCC(CNCc4ccc5c(c4)NC(=O)CS5)C3)c2n1 (centres unmarked) [Example 91, 6-[({1-[2-Hydroxy-2-(3-methoxy-quinoxalin-5-yl)-ethyl]-piperidin-3-ylmethyl}-amino)-methyl]-4H-benzo[1,4]thiazin-3-one] | ≤ 2 µg/mL
23 | COc1cnc2cccc(C(O)CN3CCCC(CNCc4ccc5c(c4)OCCO5)C3)c2n1 (centres unmarked) [Example 92, 2-(3-{[(2,3-Dihydro-benzo[1,4]dioxin-6-ylmethyl)-amino]-methyl}-piperidin-1-yl)-1-(3-methoxy-quinoxalin-5-yl)-ethanol] | ≤ 2 µg/mL
